In publication PMC4102551, “Screening and Characterisation of Antimicrobial Properties of Semisynthetic Betulin Derivatives” (PLoS ONE, 2014):
Values joined by “and” are separate entries in the source; they are usually repeats but may differ in a detail not shown here. Identical values can stand only once.

How the values were obtained:
E. aerogenes ATCC 13048 = assay: Broth microdilution assay, E. aerogenes; type: cell-based, Enterobacter aerogenes; settings: 50 µM, 24 h, inhibition of growth, mean ± SD
Protocol: (§1) Clinically used antimicrobial agents were selected based on international guidelines for antimicrobial testing and were utilised as reference compounds in the antimicrobial assays. The compounds were purchased from Sigma, Fluka and ICN Biomedicals. Stock solutions of the reference compounds were prepared either in double distilled sterile MilliQ water or in DMSO. Water solutions were sterilised through a 0.22 µm filter (VWR International). […] During the primary screening, these reference compounds were used as positive controls at the determined MIC on every plate.
(§2) Gram-negative strains Escherichia coli (ATCC 25922), Enterobacter aerogenes (ATCC 13048) and Pseudomonas aeruginosa (ATCC 27853), Gram-positive strains Staphylococcus aureus (ATCC 25923) and Enterococcus faecalis (ATCC 29212), and fungal strain Candida albicans (ATCC 90028) were obtained from Microbiologics Inc., and used for the antimicrobial screening. Strains were selected according to the guidelines set for clinical laboratories by Clinical and Laboratory Standards Institute [CLSI, formerly National Committee on Clinical Laboratory Standards [22]] and the European Committee on Antimicrobial Susceptibility Testing (EUCAST). Bacterial strains were grown on Mueller Hinton II Agar (MHA) (BBL, BD) and Mueller Hinton II broth (MHB) (BBL, BD), whereas Candida was initiated on Sabouraud Dextrose Agar (SDA) (Difco, BD) plates. Media were prepared into MilliQ water according to manufacturer’s instruction and autoclaved at 121°C for 15 min. Bacteria were plated on MHA plates and incubated at 37°C for 16–18 h. Bacterial suspension for the assays was prepared by subculturing the bacteria into MHB and by incubating at 37°C for 16–20 h at 110 rpm prior to the assay. Candida strain was grown on SDA plates at 27°C for 16–18 h and suspended into sterile 0.9% saline for the assay.
(§3) Antimicrobial screening assays were performed by broth microdilution method following the guidelines of CLSI and EUCAST. Bacterial suspensions were prepared as mentioned earlier and diluted with MHB to obtain a final inoculum of 5×10^5 colony-forming units (cfu)/mL in the assay for all the bacteria (based on OD620 values previously calibrated against plate counts). Candida suspension was prepared into sterile 0.9% saline solution as stated earlier. […] Assays were carried out in clear 96-well microtitre plates and initiated by dispensing an equal volume of microbial suspension and sample solution diluted into the assay medium into the wells. The plates were incubated for 24 h at 37°C (for Candida the incubation was at 35°C for 48 h) with agitation. Absorbance was measured at 620 nm with Victor plate reader (Wallac 1420, Perkin Elmer) at 0, 4 and 24 h with the bacteria, and at 0, 24 and 48 h with Candida. The antimicrobial activity of the samples was calculated from the absorbance values by comparing to the controls, and expressed as a percentage inhibition of growth. All the betulin derivatives were first assayed at the single concentration of 50 µM (two separate experiments, each with three replicates). […] The MIC90 value was expressed as the lowest concentration of compound that inhibited the microbial growth by >90%. The MIC90 results are means of three replicates from two separate experiments.

E. coli ATCC 25922 = assay: Broth microdilution assay, E. coli; type: cell-based, Escherichia coli; settings: 50 µM, 24 h, inhibition of growth, mean ± SD
Protocol: as §1, §2, §3

E. faecalis ATCC 29212 = assay: Broth microdilution assay, E. faecalis; type: cell-based, Enterococcus faecalis; settings: 50 µM, 24 h, inhibition of growth, mean ± SD
Protocol: as §1, §2, §3

P. aeruginosa ATCC 27853 = assay: Broth microdilution assay, P. aeruginosa; type: cell-based, Pseudomonas aeruginosa; settings: 50 µM, 24 h, inhibition of growth, mean ± SD
Protocol: as §1, §2, §3

S. aureus ATCC 25923 = assay: Broth microdilution assay, S. aureus; type: cell-based, Staphylococcus aureus; settings: 50 µM, 24 h, inhibition of growth, mean ± SD
Protocol: as §1, §2, §3

C. albicans ATCC 90028 = assay: Broth microdilution assay, C. albicans; type: cell-based, Candida albicans; settings: 50 µM, 48 h at 35°C, inhibition of growth, mean ± SD
Protocol: as §1, §2, §3

Huh-7 cells = assay: in vitro; type: cell-based, human; settings: 50 µM, 24 h exposure, ATP content, 5% FBS
Protocol: Huh-7 cells (derived from human hepatocellular carcinoma) were obtained as a gift from Prof. Ralf Bartenschlager (University of Heidelberg, Germany) and used for assessing the cytotoxicity against mammalian cells. HL cells (a heteroploid cell line used for propagating respiratory viruses) were used as a host cell line in the host-pathogen co-culture assay. […] Both cell lines were cultured at 37°C, 5% CO2 and 95% humidity.
The effect of the betulin derivatives on metabolic activity of Huh-7 cells was evaluated by measuring the intracellular ATP content of the cells after 24 h exposure to the compounds. In brief, cells were seeded at 20000 cells/well on white-walled microplates (PerkinElmer) and incubated at 37°C, 5% CO2 and 95% humidity. After culturing the cells overnight, the medium was replaced with the assay media (5% FBS) containing the sample and the cells were incubated for 24 h. Polymyxin B sulphate (15000 IU/mL) was used as a positive control. Following the incubation period, Promega’s CellTiter-Glo Cell Viability Assay was used to determine the intracellular ATP levels according to the manufacturer’s instructions. Cells were washed with 100 µL 6.7 mM PBS, pH 7.4 and 50 µL of fresh assay media and 50 µL of the CellTiter-Glo reagent were added into the wells. After 2 min shaking, followed by 10 min incubation at RT, luminometric signal was measured using Varioskan Flash plate reader (Thermo Fisher Scientific).

Row | SMILES | Inhibitory effect (%) E. aerogenes ATCC 13048 (E. aerogenes ATCC 13048) | Inhibitory effect (%) E. coli ATCC 25922 (E. coli ATCC 25922) [%] | Inhibitory effect (%) E. faecalis ATCC 29212 (E. faecalis ATCC 29212) | Inhibitory effect (%) P. aeruginosa ATCC 27853 (P. aeruginosa ATCC 27853) [%] | Inhibitory effect (%) S. aureus ATCC 25923 (S. aureus ATCC 25923) [%] | Inhibitory effect (%) C. albicans ATCC 90028 (C. albicans ATCC 90028) [%] | Cytotoxicity (%) Huh-7 cells (Huh-7 cells) [%]
1 | C=C(C)[C@@H]1CC[C@]2(C(=O)OC)CC[C@]3(C)[C@H](CC[C@@H]4[C@@]5(C)CC[C@H](O)C(C)(C)[C@@H]5CC[C@]43C)[C@@H]12 [Compound 20, betulinic acid methyl ester] | 39% and 38.9±1.5% | 13.5±8.9 | 51% and 51.1±0.6% | 8.6±2.5 | 5.3±4.2 | 34.3±5.6 | 33.7±7.0
2 | C=C(C)[C@@H]1CC[C@]2(C=NO)CC[C@]3(C)[C@H](CC[C@@H]4[C@@]5(C)CCC(=NO)C(C)(C)[C@@H]5CC[C@]43C)[C@@H]12 [Compound 30] | 18.5±3.4% | 7.9±6.1 | 57% and 56.9±2.6% | 1.4±1.1 | 5.1±6.0 | 13.9±8.8 | 42.4±5.4
3 | CCCC(=O)OCC12CCC3(C(C)C)C1=C1C(CC4C5(C)CCC(OC(=O)CCC)C(C)(C)C5CCC4(C)C1(C)CC2)n1c(=O)n(C)c(=O)n13 (stereo not shown) [Compound 46] | 7.4±5.9% | -2.1±6.4 | 44.8±2.8% | 5.2±0.7 | 2.5±3.1 | -56.1±14.6 | 6.4±2.9
4 | C=C(C)[C@@H]1CC[C@]2(COC(C)=O)CC[C@]3(C)[C@H](CC[C@@H]4[C@@]5(C)CC[C@H](O)C(C)(C)[C@@H]5CC[C@]43C)[C@@H]12 [Compound 9] | 9.1±2.1% | -0.2±7.1 | 50.9±2.1% | -0.6±3.3 | 5.1±6.9 | 3.0±10.1 | 5.1±1.0
5 | C=C(C)C1CCC2(COS(C)(=O)=O)CCC3(C)C(CCC4C5(C)CCC(OC(C)=O)C(C)(C)C5CCC43C)C12 (stereo not shown) [Compound 13] | 15.0±1.9% | -0.4±3.4 | 61.2±1.5% | 6.5±0.9 | -16.5±3.0 | -14.8±8.5 | 0.2±3.8
6 | CC(C)C12CCC3(COC(=O)c4ccccc4)CCC4(C)C(=C31)C(CC1C3(C)CCC(OC(=O)c5ccccc5)C(C)(C)C3CCC14C)n1c(=O)n(-c3ccccc3)c(=O)n12 (stereo not shown) [Compound 50] | 9.6±4.2% | -2.8±5.2 | 38.8±5.8% | 3.2±0.3 | 10.1±1.0 | -35.2±31.4 | -6.2±3.7
7 | CC(=O)OCC12CCC3(C(C)C)C1=C1C(CC4C5(C)CCC(OC(C)=O)C(C)(C)C5CCC4(C)C1(C)CC2)n1c(=O)n(-c2ccc(F)cc2)c(=O)n13 (stereo not shown) [Compound 37] | 17.7±2.2% | 5.0±8.8 | 48.2±7.7% | 4.6±0.7 | 6.5±0.9 | 11.7±9.0 | 0.8±3.4
8 | C=C(C)[C@@H]1CC[C@]2(COC(=O)c3cccnc3)CC[C@]3(C)[C@H](CC[C@@H]4[C@@]5(C)CC[C@H](O)C(C)(C)[C@@H]5CC[C@]43C)[C@@H]12 [Compound 6, 28-O-nicotinoylbetulin] | 7.5±1.3% | -0.6±6.8 | 60.1±4.0% | 2.2±2.2 | -17.7±2.0 | 36.7±7.6 | -0.4±3.4
9 | C=C(C)C1CCC2(C=O)CCC3(C)C(CCC4C5(C)CCC(=O)C(C)(C)C5CCC43C)C12 (stereo not shown) [Compound 22] | 6.0±4.6% | -1.2±0.5 | 16.3±19.0% | 4.5±1.6 | 0.1±1.5 | -18.7±15.1 | 4.1±17.7
10 | CC(C)C(=O)OCC12CCC3(C(C)C)C1=C1C(CC4C5(C)CCC(OC(=O)C(C)C)C(C)(C)C5CCC4(C)C1(C)CC2)n1c(=O)n(C)c(=O)n13 (stereo not shown) [Compound 47] | 9.6±1.7% | -3.8±4.2 | 47.8±1.3% | 1.4±0.8 | 2.9±1.0 | 12.0±12.7 | -4.9±2.2
11 | C=C(C)C1CCC2(CO)CCC3(C)C(CCC4C5(C)CCC(OC(C)=O)C(C)(C)C5CCC43C)C12 (stereo not shown) [Compound 12] | 14.5±1.3% | 1.0±5.0 | 54.7±7.9% | 1.8±1.2 | -16.3±7.4 | -18.0±27.4 | 3.8±14.1
12 | CCCCn1c(=O)n2n(c1=O)C1(C(C)C)CCC3(COC(C)=O)CCC4(C)C(=C31)C2CC1C2(C)CCC(OC(C)=O)C(C)(C)C2CCC14C (stereo not shown) [Compound 42] | 10.6±3.5% | 1.7±5.2 | 67.5±3.7% | 1.0±0.4 | 1.5±1.0 | -12.0±11.8 | -8.3±1.3
13 | CCC(=O)OCC12CCC3(C(C)C)C1=C1C(CC4C5(C)CCC(OC(=O)CC)C(C)(C)C5CCC4(C)C1(C)CC2)n1c(=O)n(C)c(=O)n13 (stereo not shown) [Compound 45] | 10.8±6.9% | -4.3±7.0 | 41.6±2.8% | 3.7±1.2 | 0.7±3.8 | -30.7±19.4 | 11.1±5.1
